Data as given in patent publication US8846653B2, “Delta-tocotrienol treatment and prevention of pancreatic cancer” (University of South Florida, priority 2006, dated 2014).

Columns and labels:
Assay type in all cases: cell-based, human
MIA PaCa2 cells = test: MTT cell viability, δ-tocotrienol, fluorouracil or combination
Description: FIG. 39 is a graph MIA PaCa2 pancreatic cancer cells (3×10^3) treated with indicated concentrations of delta-tocotrienol, fluorouracil (5FU), or a combination of the indicated delta-tocotrienol and 5FU.
The MiaPaCa 2 cells were plated as above into 96 well plates and treated the following day with increasing concentrations of δ-tocotrienol, fluorouracil (5FU), or a combination of δ-tocotrienol and fluorouracil. The cells were collected and analyzed for cell viability using an MTT assay. […] MIA PaCa2 cells (3×10^3) were cultured as described in the Examples above, in 96-well plates and treated the following day with vehicle, δ-tocotrienol, fluorouracil, or a combination of δ-tocotrienol and fluorouracil.

MIA PaCa-2 cells = test: Trypan blue cell death, δ-tocotrienol, 5-FU or combination, 24 hours; conditions: MIA PaCa-2, 50 μM each
Description: MIA PaCa-2 cells were treated vehicle or an anti-proliferative treatment comprising 50 μM δ-tocotrienol, 50 μM 5-FU, or 50 μM δ-tocotrienol and 50 μM 5-FU for 24 hours. Cells were harvested, fixed, permeablized and stained with trypan blue.

[1] = test system: MiaPaCa2 pancreatic cancer cells; test: Malignant transformation (Soft Agar) colony formation; conditions: MiaPaCa2, 50 μM, vs vehicle
Description: FIG. 20 is a graph showing the effect of tocotrienols on pancreatic cancer malignant transformation (Soft Agar). […] Bars, SE (n=3). *p<0.001 vs. vehicle. **p<0.02 vs. vehicle. ***p<0.05 vs. vehicle. T=tocopherol, T3=tocotrienol.
MiaPaCa2 cells (3×10^3) were cultured as described in the Examples above, in 96-well plates and treated with 50 μM of different tocopherol or tocotrienol.

[2] = test system: MIA PaCa-2 cells (pZWL vector and myrAKT); test: Cell death (trypan blue) in vector and myrAKT MIA PaCa-2 cells; conditions: MIA PaCa-2 vector vs myr-AKT cells, 24 hours, compared to vehicle
Description: FIG. 12 is a graph wherein MIA PaCa-2 cells (pZWL vector and myrAKT) were treated without serum vehicle or δ-tocotrienol (50 μM) for 24 hours, with and without a 10-hour caspase 8/3 inhibitor pretreatment. Cells were also treated with TRAIL as a positive control. Cells were then harvested, fixed, permeablized and stained with trypan blue.
To further identify the role of AKT in the apoptotic pathways noted in Example 2, functional overexpression of CA-AKT was analyzed in Mia-PaCa2 pancreatic cancer cells. MIA PaCa-2 cells were treated with pZWL vector and myrAKT, a retroviral vector encoding myristoylated AKT, with or without serum, vehicle, or δ-tocotrienol (40 or 50 μM) for 24 hours, with and without a 10-hour caspase 8 inhibitor pretreatment. Cells were also treated with TRAIL as a positive control. Cells were then harvested, fixed, permeablized and stained with trypan blue.
The myristoylated AKT rescued δ-tocotrienol suppression PI3K-AKT signaling. The MiaPaCa-2 parental cell lines were stably transfected using constitutively active myristoylated AKT in a pWZL vector construct to generate MiaPaCa-2AKT cells. […] Lastly, pretreatment with caspase 3, 8 and 9 inhibitors rescued tocotrienol induced cell death.

O=c1[nH]cc(F)c(=O)[nH]1 [5-FU, fluorouracil]
concentration at which the effect became significant vs vehicle (MIA PaCa2 cells): 50 µM
cell death (Trypan Blue) (MIA PaCa-2 cells): increased cell death

Cc1cc(O)cc2c1O[C@](C)(CCC[C@H](C)CCC[C@H](C)CCCC(C)C)CC2 [δ-tocopherol]
malignant transformation (Soft Agar) [1]: no effect

B1: TRAIL: positive control for cell death (protein, UniProt P50591 1-281, looked up)
Tumor necrosis factor ligand …: MAMMEVQGGPSLGQTCVLIVIFTVLLQSLCVAVTYVYFTNELKQMQDKYSKSGIACFLKEDDSYWDPNDEESMNSPCWQVKWQLRQLVRKMILRTSEETISTVQEKQQNISPLVRERGPQRVAAHITGTRGRSNTLSSPNSKNEKALGRKINSWESSRSGHSFLSNLHLRNGELVIHEKGFYYIYSQTYFRFQEEIKENTKNDKQMVQYIYKYTSYPDPILLMKSARNSCWSKDAEYGLYSIYQGGIFELKENDRIFVSVTNEHLIDMDHEASFFGAFLVG
cell death [2]: comparable to vehicle
